Among the data in DBAASP are MIC values, retold here.

≈ marks a conversion by molar mass, not a printed value.

Experiment in all cases: ≥ marks a high value that may be exact or a test limit, other limits are often not marked, values filed in µg/mL are converted to µM
Assay [1] concerns Escherichia coli ATCC 25922.
Assay [2] concerns Staphylococcus aureus ATCC 25923.
Assay [3] relates to Candida albicans ATCC 2002.
For assay [4], the system named is Pseudomonas aeruginosa CMCCB 10104.
Assay [5] deals with Klebsiella pneumoniae ATCC 700603.
Assay [6] concerns Pseudomonas aeruginosa ATCC 27853.
Assay [7] deals with Escherichia coli ATCC 25726.
Assay [8] relates to Candida albicans ATCC 90028.

Consider `CC[C@H](C)[C@H](NC(=O)CN)C(=O)N[C@@H](Cc1ccccc1)C(=O)N[C@@H](CC(C)C)C(=O)N[C@@H](CCCCN)C(=O)N[C@H](C(=O)N[C@@H](CC(C)C)C(=O)NCC(=O)N[C@H](C(=O)NCC(=O)N[C@@H](CCCCN)C(=O)N[C@@H](CCCCN)C(=O)N[C@H](C(=O)N[C@@H](CC(C)C)C(=O)N[C@H]1CSSC[C@@H](C(=O)O)NC(=O)[C@H](CC(C)C)NC(=O)CNC(=O)[C@H](CO)NC(=O)[C@H](C(C)C)NC(=O)CNC1=O)C(C)C)C(C)C)C(C)C` [GIFLKVLGVGKKVLCGVSGLC], for which the minimal inhibitory concentration (MIC) in assay [1] stood at 5.17 µM (≈ 10.8 µg/mL); in assay [2], 2.58 µM (≈ 5.39 µg/mL); in assay [3], 5.17 µM (≈ 10.8 µg/mL); in assay [4] it was 10.3 µM (≈ 21.6 µg/mL).

On to `CC[C@H](C)[C@H](NC(=O)CN)C(=O)N[C@@H](Cc1ccccc1)C(=O)N[C@@H](CO)C(=O)N[C@@H](CCCCN)C(=O)N[C@H](C(=O)N[C@@H](CO)C(=O)NCC(=O)N[C@@H](CCCCN)C(=O)N[C@@H](C)C(=O)N[C@H](C(=O)N[C@@H](CCCCN)C(=O)N[C@@H](CC(N)=O)C(=O)N[C@@H](CC(C)C)C(=O)N[C@@H](Cc1ccccc1)C(=O)N[C@H](C(=O)N[C@@H](CCCCN)C(=O)NCC(=O)N[C@@H](C)C(=O)N[C@@H](CCCCN)C(=O)N[C@@H](CC(N)=O)C(=O)N[C@H](C(=O)NCC(=O)N[C@@H](CCCCN)C(=O)N[C@@H](CCC(=O)O)C(=O)N[C@H](C(=O)NCC(=O)N[C@@H](CCSC)C(=O)N[C@@H](CC(=O)O)C(=O)N[C@H](C(=O)N[C@H](C(=O)N[C@@H](CCCN=C(N)N)C(=O)N[C@H](C(=O)NCC(=O)N[C@@H](CCSC)C(=O)N[C@@H](CC(=O)O)C(=O)N[C@H](C(=O)N[C@H](C(=O)NCC(=O)N[C@H]1CSSC[C@@H](C(=O)O)NC(=O)[C@H](CCC(=O)O)NC(=O)CNC(=O)[C@H](CCCCN)NC(=O)[C@H]([C@@H](C)CC)NC(=O)[C@H](CCCCN)NC1=O)C(C)C)C(C)C)[C@@H](C)O)C(C)C)C(C)C)C(C)C)C(C)C)[C@@H](C)CC)[C@@H](C)CC)[C@@H](C)CC` [GIFSKISGKAIKNLFIKGAKNVGKEVGMDVVRTGMDVVGCKIKGEC], for which the MIC turned out to be 0.849 µM (≈ 4.1 µg/mL) in assay [1], 0.849 µM (≈ 4.1 µg/mL) in assay [2], 0.435 µM (≈ 2.1 µg/mL) in assay [3] and 1.7 µM (≈ 8.2 µg/mL) in assay [4].

As to `CC[C@H](C)[C@H](NC(=O)CN)C(=O)N[C@@H](Cc1ccccc1)C(=O)N[C@H](C(=O)N[C@@H](CC(C)C)C(=O)N[C@H](C(=O)N[C@@H](CCCCN)C(=O)NCC(=O)N[C@@H](C)C(=O)N[C@@H](C)C(=O)N[C@@H](CCCCN)C(=O)N[C@@H](CC(C)C)C(=O)N[C@H](C(=O)NCC(=O)N[C@@H](CCCCN)C(=O)N[C@H](C(=O)N[C@H](C(=O)N[C@@H](C)C(=O)N[C@@H](CCCCN)C(=O)N[C@@H](CCC(=O)O)C(=O)N[C@@H](C)C(=O)NCC(=O)N[C@@H](CCCCN)C(=O)N[C@H](C(=O)NCC(=O)N[C@@H](CC(C)C)C(=O)N[C@@H](CCC(=O)O)C(=O)N[C@@H](CC(C)C)C(=O)N[C@@H](CCSC)C(=O)N[C@@H](C)C(=O)N[C@H]1CSSC[C@@H](C(=O)O)NC(=O)[C@H](CCC(N)=O)NC(=O)[C@H](CC(N)=O)NC(=O)[C@H]([C@@H](C)O)NC(=O)[C@H]([C@@H](C)CC)NC(=O)[C@H](CCCCN)NC1=O)[C@@H](C)O)C(C)C)[C@@H](C)O)[C@@H](C)CC)[C@@H](C)CC)[C@@H](C)O` [GIFTLIKGAAKLIGKTVAKEAGKTGLELMACKITNQC], the minimum inhibitory concentration (MIC) was 2.22 µM (≈ 8.5 µg/mL) in assay [1], 1.13 µM (≈ 4.3 µg/mL) in assay [2], 2.22 µM (≈ 8.5 µg/mL) in assay [3] and 1.13 µM (≈ 4.3 µg/mL) in assay [4].

Turning to `CC[C@H](C)[C@H](NC(=O)CNC(=O)[C@H](CCCCN)NC(=O)CNC(=O)[C@H](C)NC(=O)[C@H](Cc1ccccc1)NC(=O)[C@H](CCCCN)NC(=O)[C@H](CO)NC(=O)[C@H](Cc1ccccc1)NC(=O)[C@H](CC(C)C)NC(=O)CN)C(=O)N[C@@H](CCCCN)C(=O)N[C@@H](CC(=O)O)C(=O)N[C@@H](CC(C)C)C(=O)N[C@H](C(=O)N[C@@H](Cc1ccccc1)C(=O)N[C@@H](CCCCN)C(=O)NCC(=O)N[C@H](C(=O)N[C@@H](CCCCN)C(=O)N[C@@H](Cc1cnc[nH]1)C(=O)N[C@H](C(=O)NCC(=O)N[C@@H](CCCCN)C(=O)N[C@@H](CCC(=O)O)C(=O)N[C@H](C(=O)NCC(=O)N[C@@H](CCSC)C(=O)N[C@@H](CC(=O)O)C(=O)N[C@H](C(=O)N[C@H](C(=O)N[C@@H](CCCN=C(N)N)C(=O)N[C@H](C(=O)NCC(=O)N[C@H](C(=O)N[C@@H](CC(=O)O)C(=O)N[C@H](C(=O)N[C@@H](C)C(=O)NCC(=O)N[C@H]1CSSC[C@@H](C(=O)O)NC(=O)[C@H](CCC(=O)O)NC(=O)CNC(=O)[C@H](CCCCN)NC(=O)[C@H]([C@@H](C)CC)NC(=O)[C@H](CCCCN)NC1=O)C(C)C)[C@@H](C)CC)[C@@H](C)O)[C@@H](C)CC)C(C)C)C(C)C)[C@@H](C)CC)C(C)C)[C@@H](C)CC` [GLFSKFAGKGIKDLIFKGVKHIGKEVGMDVIRTGIDVAGCKIKGEC], the MIC in assay [1] came to 1.11 µM (≈ 5.4 µg/mL); in assay [2], 1.11 µM (≈ 5.4 µg/mL); in assay [3], 0.555 µM (≈ 2.7 µg/mL); in assay [4], 0.555 µM (≈ 2.7 µg/mL).

For the compound `CC[C@H](C)[C@H](NC(=O)CNC(=O)[C@H](CCCCN)NC(=O)CNC(=O)[C@H](CO)NC(=O)[C@H](Cc1ccccc1)NC(=O)[C@H](CCCCN)NC(=O)[C@H](CO)NC(=O)[C@H](Cc1ccccc1)NC(=O)[C@H](CC(C)C)NC(=O)CN)C(=O)N[C@@H](CCCCN)C(=O)N[C@@H](CC(N)=O)C(=O)N[C@@H](Cc1ccccc1)C(=O)N[C@@H](CC(C)C)C(=O)N[C@H](C(=O)N[C@@H](CCCCN)C(=O)NCC(=O)N[C@H](C(=O)N[C@@H](CCCCN)C(=O)N[C@@H](Cc1cnc[nH]1)C(=O)N[C@H](C(=O)NCC(=O)N[C@@H](CCCCN)C(=O)N[C@@H](CCC(=O)O)C(=O)N[C@H](C(=O)NCC(=O)N[C@@H](CCSC)C(=O)N[C@@H](CC(=O)O)C(=O)N[C@H](C(=O)N[C@H](C(=O)N[C@@H](CCCN=C(N)N)C(=O)N[C@H](C(=O)NCC(=O)N[C@H](C(=O)N[C@@H](CC(=O)O)C(=O)N[C@H](C(=O)N[C@@H](C)C(=O)NCC(=O)N[C@H]1CSSC[C@@H](C(=O)O)NC(=O)[C@H](CCC(=O)O)NC(=O)CNC(=O)[C@H](CCCCN)NC(=O)[C@H]([C@@H](C)CC)NC(=O)[C@H](CCCCN)NC1=O)C(C)C)[C@@H](C)CC)[C@@H](C)O)[C@@H](C)CC)C(C)C)C(C)C)[C@@H](C)CC)C(C)C)[C@@H](C)CC` [GLFSKFSGKGIKNFLIKGVKHIGKEVGMDVIRTGIDVAGCKIKGEC], the MIC was 0.512 µM (≈ 2.5 µg/mL) in assay [1], 0.266 µM (≈ 1.3 µg/mL) in assay [2], 0.266 µM (≈ 1.3 µg/mL) in assay [3] and 0.512 µM (≈ 2.5 µg/mL) in assay [4].

As for `CC[C@H](C)[C@H](N)C(=O)N1CCC[C@H]1C(=O)N[C@@H](Cc1c[nH]c2ccccc12)C(=O)N[C@@H](CCCCN)C(=O)N[C@@H](CC(C)C)C(=O)N1CCC[C@H]1C(=O)N[C@@H](C)C(=O)N[C@H](C(=O)N[C@@H](Cc1ccccc1)C(=O)N[C@@H](CCCN=C(N)N)C(=O)N1CCC[C@H]1C(=O)N[C@H](C(=O)N[C@@H](CCC(=O)O)C(=O)N[C@@H](CCCN=C(N)N)C(=O)N1CCC[C@H]1C(=O)N[C@@H](Cc1ccccc1)C(=O)N[C@@H](CO)C(=O)N[C@@H](CCCCN)C(=O)N1CCC[C@H]1C(=O)N[C@@H](Cc1ccccc1)C(=O)N[C@@H](CS)C(=O)N[C@@H](CCCN=C(N)N)C(=O)N[C@@H](CCCCN)C(=O)N[C@@H](CC(=O)O)C(=O)O)C(C)C)[C@@H](C)O` [IPWKLPATFRPVERPFSKPFCRKD], the MIC is over 34.3 µM in assay [1], 34.3 µM (≈ 100 µg/mL) in assay [2], at least 34.3 µM in assay [3] and at least 34.3 µM in assay [4].

For `CC[C@H](C)[C@H](NC(=O)CNC(=O)[C@H](CCCCN)NC(=O)[C@H](C)NC(=O)[C@@H](NC(=O)[C@H](CCCCN)NC(=O)[C@H](CCCCN)NC(=O)[C@H](CC(C)C)NC(=O)[C@@H](NC(=O)[C@H](CC(=O)O)NC(=O)[C@H](CCCCN)NC(=O)[C@@H](NC(=O)[C@H](Cc1ccccc1)NC(=O)CNC(=O)[C@@H]1CCCN1C(=O)[C@@H](NC(=O)[C@H](CCCCN)NC(=O)[C@@H](N)CC(C)C)[C@@H](C)CC)C(C)C)[C@@H](C)O)C(C)C)C(=O)N[C@@H](Cc1ccccc1)C(=O)N[C@@H](CO)C(=O)N[C@@H](C)C(=O)N[C@H](C(=O)N[C@@H](C)C(=O)NCC(=O)N[C@@H](C)C(=O)N[C@@H](CCSC)C(=O)N[C@H](C(=O)N1CCC[C@H]1C(=O)N[C@@H](CO)C(=O)O)[C@@H](C)O)C(C)C` [LKIPGFVKDTLKKVAKGIFSAVAGAMTPS], the MIC in assay [5] was 20 µM (≈ 59.5 µg/mL); in assay [2] it was 40 µM (≈ 119 µg/mL); in assay [6] it was 20 µM (≈ 59.5 µg/mL); in assay [7], 20 µM (≈ 59.5 µg/mL); in assay [8], at least 80 µM.

As to `CC[C@H](C)[C@H](NC(=O)[C@H](CC(C)C)NC(=O)[C@@H](NC(=O)[C@H](Cc1ccccc1)NC(=O)[C@@H](NC(=O)[C@@H](N)CCC(N)=O)C(C)C)[C@@H](C)O)C(=O)N[C@@H](CCCCN)C(=O)NCC(=O)N[C@@H](C)C(=O)N[C@H](C(=O)N[C@@H](CCC(N)=O)C(=O)N[C@@H](CC(C)C)C(=O)N[C@H](C(=O)N[C@@H](CCCN=C(N)N)C(=O)N[C@@H](CCCCN)C(=O)N[C@H](C(=O)N[C@@H](CC(C)C)C(=O)NCC(=O)N[C@@H](CCC(=O)O)C(=O)N[C@@H](CCC(N)=O)C(=O)O)[C@@H](C)O)[C@@H](C)CC)[C@@H](C)O` [QVFTLIKGATQLIRKTLGEQ], the minimal inhibitory concentration (MIC) in assay [1] came to 1.78 µM (≈ 4 µg/mL); in assay [2], 3.56 µM (≈ 8 µg/mL); in assay [3], 3.56 µM (≈ 8 µg/mL); in assay [4], 7.13 µM (≈ 16 µg/mL).

A word on the MIC: it is the smallest concentration in the dilution series that meets the test's criterion for growth inhibition. The low end stands for inhibition by little substance, the high end for a need for much substance.
